Data published in patent publication US9005627B2, “Contiguous overlapping peptides for treatment of ragweed pollen allergy” (Anergis S.A., priority 2011, dated 2015).
“Also recorded” adds a separate entry of the source. No end group written: not given here.

Tests used:
[1] = pH 7
Description: (§1) Peptides were resuspended either in water at 2 mg/ml or at 10 to 20 mg per ml in DMSO as indicated and frozen in aliquots.

[2] = Solubility characteristics of COPs
Description: as §1

[3] = system: Amb a 1 specific IgE in serum of subjects allergic to ragweed pollen; test: Competition ELISA for IgE binding on nAmb a 1 coated plates; parameters: species or system human
Description: Recombinant Amb a 1 at 0.5 μg/ml (purified nAmb a 1 obtained from Protein Labs, San Diego) was coated overnight on 96-well Nunc Maxisorp® immunoplates (Life Technologies, Basel, Switzerland). After blocking with 1% BSA, either ten-fold, twenty-fold, thirty-fold or forty-fold dilutions of patient serum were added depending on specific IgE content. […] The sera of three allergic patients were selected for high IgE level and clear signal over background and used to test for competition with the peptides. Serial dilutions of each set of COPs, namely Set A; Set B and Set C, at indicted concentrations were pre-incubated with the three selected sera overnight at 4° C. Sera were then incubated on nAmb a 1 coated 96-well plates and residual IgE binding was determined as described above. nAmb a 1 dilutions were used as control for inhibition, whereas BSA was used as control for possible non-specific inhibition.

[4] = system: human basophils loaded with serum from a patient allergic to ragweed pollen; test: Human basophil degranulation test (Basotest); type: cell-based
Description: BasotestR (ORPEGEN Pharma Heidelberg, Germany) was used for the quantitative determination of in vitro basophile degranulation. Heparinized blood (100 μl) from a non-allergic donor (ACT) was first incubated with serum (25 μl) from a patient allergic to ragweed pollen (FB) for 2 hours. The mix was further stimulated with buffer (reagent B) for 10 min at 37° C., and then with or without chemotactic peptide formylmethionylleucylphenylalanine (fMLP) as positive and negative controls respectively. Aliquots of blood were incubated in parallel with 100 μl allergen solution diluted in a saline solution for 20 min at 37° C. A dose response curve was performed with 250-12.5-0.625-0.031 nano-molar nAmb a 1 (added concentration) as well as starting 10 fold higher with AllerR mixed Sets (AllerR1-R6 and AllerR7-11). The activation process was stopped by incubating the blood samples at 4° C. for 5 min. The samples were then incubated for 20 min at +4° C.) (dark condition with 20 μl of phycoerythrin (PE)-conjugated anti-IgE and fluorescein isothyocyanate (FITC)-conjugated anti-gp53 (CD63). […] Cells were washed twice with PBS solution and resuspended in 200 μl of PBS solution and analyzed within 2 h by flow cytometry (FASC-LSRII-Becton Dickinson). The basophile population was gated on the PE anti-IgE positive cells and the expression of gp53 (CD63) was analyzed on this population. […]

[5] = system: Rat Basophilic Leukemia cells (RBL-30/25) expressing human IgE receptor, pre-loaded with sera from allergic patients; test: RBL cell degranulation (beta-hexosaminidase release); type: cell-based; conditions: sera from panel of allergic patients (21 sera); FIG. 3
Description: Alternatively, degranulation was monitored using Rat Basophilic Leukemia cells (RBL) expressing parts of the human IgE receptor pre-loaded with sera from allergic patients (Vogel et al, Allergy 60: 1021-1028 (2005)). Essentially, RBL-30/25 cells were pre-incubated overnight with sera from patients from the region around Lyon (France, Biomnis) as well as from US (Plasma Lab International). To increase and stabilize the secretion of beta-hexosaminidase, 50% D2O was added to the Tyrode's buffer used for the assay. beta-hexosaminidase release after IgE crosslinking with an anti-IgE antibody was set to 100% release reflecting the ability of the cells to release beta-hexosaminidase upon IgE crosslinking. Amb a 1-specific release is given as percent of IgE mediated release.

[6] = system: Balb/c mice sensitized with nAmb a 1; test: Anaphylactic response in sensitized mice (sensitization and challenge); type: in vivo
Description: Balb/c mice were sensitized by repeated injections of low doses (1 ug) of the allergen Amb a 1 by 5 subcutaneous injections at 14 days interval. […] Anaphylactic symptoms were scored using a scale of 6 grades (0, no symptoms to 5, death) adapted from Sade et al. J Investig Allergol Clin Immunol; 17(6): 379-385 (2007). Rectal temperature was monitored at 15 minutes intervals for 60 minutes after challenge using a digital thermometer. Citrate buffer was used as control for sensitization and challenge leading to two additional mice groups.

FVLLFGAGDENIEDRGMLATVAFNTFTDNVDQRMPRCRHGFFQVVNNNYDKWGSYAIGGSASPTILSQGNRFCAPDERS [AllerR10]
Conc. (solubility) [1]: 2000 µg/mL

TIDGRGAKVEIINAGFTLNGVKNVIIHNINMHDVKVNPGGLIK [AllerR3]
solubility ([2]; water): 2000 µg/mL

DVANPKEGTLRFGAAQNRPLWIIFERDMVIRLDKEMVVNSDKTIDGRGAKVE [AllerR2]
solubility ([2]; water): 2000 µg/mL

AGSDGDAISISGSSQIWIDHCSLSKSVDGLVDAKLGTTRLTVSNSLFTQHQFVLLFGAGDENIEDRGMLATVAFNTFTDN [AllerR4]
IgE binding (in words) ([3]; as seen in competition ELISA): did not bind IgE | IgE binding (in words) ([4]; as seen in degranulation assays): did not bind IgE

TSGAYNIIDGCWRGKADWAENRKALADCAQGFGKGTVGGKDGDIYTVTSELDDDVANPK (cysteines drawn unpaired) [AllerR1]
solubility ([2]; water): 2000 µg/mL

VDAKLGTTRLTVSNSLFTQHQFVLLFGAGDENIEDRGMLATVAFNTFTDN [AllerR4.2]
solubility ([2]; 5 mM HCl, 0.1 M NaOH and 0.1 M citrate buffer pH 5.6, pH 5.6): 1000 µg/mL | Solubility (in words) ([2]; solvent as stated in the value): not soluble in H2O

B1: nAmb a 1: ragweed pollen major allergen purified from ragweed pollen by Protein Labs; positive control (protein)
chain: AEDLQEILPVNETRRLTTSGAYNIIDGCWRGKADWAENRKALADCAQGFGKGTVGGKDGDIYTVTSELDDDVANPKEGTLRFGAAQNRPLWIIFERDMVIRLDKEMVVNSDKTIDGRGAKVEIINAGFTLNGVKNVIIHNINMHDVKVNPGGLIKSNDGPAAPRAGSDGDAISISGSSQIWIDHCSLSKSVDGLVDAKLGTTRLTVSNSLFTQHQFVLLFGAGDENIEDRGMLATVAFNTFTDNVDQRMPRCRHGFFQVVNNNYDKWGSYAIGGSASPTILSQGNRFCAPDERSKKNVLGRHGEAAAESMKWNWRTNKDVLENGAIFVASGVDPVLTPEQSAGMIPAEPGESALSLTSSAGVLSCQPGAPC
Concentration range showing competition ([3]; panel of sera from 22 patients allergic to ragweed, data not shown): 10^−11 to 10^−8 molar | Concentrations at which competition with serum IgE occurs ([3]; sera from three allergic patients (17794, 18342, FB), FIG. 1): 10^−11 to 10^−8 M | Basophil degranulation (CD63 expression), in words ([4]; human basophils loaded with serum FB, FIG. 2): induce human basophil degranulation | Degranulation of RBL cells, in words [5]: triggered degranulation to various extents; also recorded: triggered degranulation to various extend | Anaphylactic symptom scores (scale 0 to 5) ([6]; challenge 7 days after last sensitizing injection, Amb a 1 30 μg/ml or AllerR 34 μg/ml, observed one hour, FIG. 5 panel A): significant increase in symptom scores already after 15 min | Rectal (body) temperature after challenge ([6]; measured every 15 min, FIG. 5 panel B): marked decrease in rectal temperature | IgE mean levels, increase over pre-immune following sensitization ([6]; mice sensitized by repeated s.c. injections of nAmb a 1, FIG. 5 panel C): about 500 fold
